Earlier results on one molecule are cited in paper PMC13335693, “Discovery of a Potent Fluorescence Polarization Probe for Identifying USP1 Allosteric Inhibitors” (Advanced Science, 2026).

The structures appear in SMILES notation.

The conditions of this data set: stated for compound 4 as known drawback; no reference given.

Turning to `Cc1cnc(-c2ccccc2C(C)C)nc1NCc1ccc(-n2ccnn2)cc1` [ML323], the “half-life in mouse liver microsomes (MLM)” value was 15 min.
